“And” between values parts separate entries of the source, which are not always exact repeats. Equal values may be shown once.
Experiment: xn = mol fraction of the nth substance listed
Settings: Fluid (supercritical or subcritical phases), Parallel plate method

CC [ethane] + O=C=O
Settings | thermal conductivity
296.64 K, Amount density=7450 mol/m3, x2 = 0.25 | 0.186 W/m/K
296.65 K, Amount density=7450 mol/m3, x2 = 0.25 | 0.183 W/m/K
296.66 K, Amount density=6830 mol/m3, x2 = 0.25 | 0.138 W/m/K
296.69 K, Amount density=7450 mol/m3, x2 = 0.25 | 0.186 W/m/K
296.7 K, Amount density=6870 mol/m3, x2 = 0.25 | 0.177 W/m/K and 0.188 W/m/K
296.7 K, Amount density=7450 mol/m3, x2 = 0.25 | 0.154 W/m/K
296.71 K, Amount density=6870 mol/m3, x2 = 0.25 | 0.214 W/m/K
296.71 K, Amount density=7450 mol/m3, x2 = 0.25 | 0.175 W/m/K
296.72 K, Amount density=7450 mol/m3, x2 = 0.25 | 0.164 W/m/K and 0.166 W/m/K
296.73 K, Amount density=6870 mol/m3, x2 = 0.25 | 0.195 W/m/K
296.74 K, Amount density=6830 mol/m3, x2 = 0.25 | 0.199 W/m/K
296.74 K, Amount density=7450 mol/m3, x2 = 0.25 | 0.145 W/m/K
296.75 K, Amount density=6870 mol/m3, x2 = 0.25 | 0.204 W/m/K
296.75 K, Amount density=7450 mol/m3, x2 = 0.25 | 0.157 W/m/K
296.76 K, Amount density=6870 mol/m3, x2 = 0.25 | 0.189 W/m/K
296.77 K, Amount density=6870 mol/m3, x2 = 0.25 | 0.195 W/m/K
296.79 K, Amount density=6830 mol/m3, x2 = 0.25 | 0.218 W/m/K
296.8 K, Amount density=6870 mol/m3, x2 = 0.25 | 0.168 W/m/K
296.8 K, Amount density=8450 mol/m3, x2 = 0.25 | 0.0921 W/m/K
296.82 K, Amount density=6710 mol/m3, x2 = 0.26 | 0.118 W/m/K
296.83 K, Amount density=6870 mol/m3, x2 = 0.25 | 0.157 W/m/K
296.84 K, Amount density=6710 mol/m3, x2 = 0.26 | 0.111 W/m/K
296.84 K, Amount density=6830 mol/m3, x2 = 0.25 | 0.142 W/m/K
296.85 K, Amount density=5680 mol/m3, x2 = 0.25 | 0.0729 W/m/K
296.86 K, Amount density=2940 mol/m3, x2 = 0.25 | 0.0306 W/m/K
296.87 K, Amount density=877 mol/m3, x2 = 0.26 | 0.0217 W/m/K
296.87 K, Amount density=6710 mol/m3, x2 = 0.26 | 0.11 W/m/K
296.88 K, Amount density=446 mol/m3, x2 = 0.25 | 0.021 W/m/K
296.88 K, Amount density=7450 mol/m3, x2 = 0.25 | 0.145 W/m/K
296.88 K, Amount density=7490 mol/m3, x2 = 0.25 | 0.139 W/m/K
297.16 K, Amount density=3090 mol/m3, x2 = 0.26 | 0.0313 W/m/K
297.44 K, Amount density=8450 mol/m3, x2 = 0.25 | 0.0821 W/m/K
297.46 K, Amount density=5680 mol/m3, x2 = 0.25 | 0.0677 W/m/K
297.46 K, Amount density=6830 mol/m3, x2 = 0.25 | 0.11 W/m/K and 0.102 W/m/K
297.47 K, Amount density=2940 mol/m3, x2 = 0.25 | 0.0305 W/m/K
297.47 K, Amount density=6830 mol/m3, x2 = 0.25 | 0.102 W/m/K
297.48 K, Amount density=7490 mol/m3, x2 = 0.25 | 0.111 W/m/K
297.5 K, Amount density=10780 mol/m3, x2 = 0.25 | 0.0671 W/m/K
297.52 K, Amount density=446 mol/m3, x2 = 0.25 | 0.021 W/m/K
298.49 K, Amount density=9120 mol/m3, x2 = 0.74 | 0.06 W/m/K
298.69 K, Amount density=6870 mol/m3, x2 = 0.25 | 0.169 W/m/K
298.95 K, Amount density=7450 mol/m3, x2 = 0.25 | 0.081 W/m/K
298.99 K, Amount density=5680 mol/m3, x2 = 0.25 | 0.0623 W/m/K
298.99 K, Amount density=6830 mol/m3, x2 = 0.25 | 0.0779 W/m/K
298.99 K, Amount density=7490 mol/m3, x2 = 0.25 | 0.0811 W/m/K
298.99 K, Amount density=10780 mol/m3, x2 = 0.25 | 0.0684 W/m/K
299 K, Amount density=2940 mol/m3, x2 = 0.25 | 0.0305 W/m/K
299.01 K, Amount density=446 mol/m3, x2 = 0.25 | 0.0211 W/m/K
299.01 K, Amount density=6630 mol/m3, x2 = 0.74 | 0.0467 W/m/K
299.02 K, Amount density=446 mol/m3, x2 = 0.25 | 0.0212 W/m/K
301.91 K, Amount density=7730 mol/m3, x2 = 0.5 | 0.0493 W/m/K
301.93 K, Amount density=6710 mol/m3, x2 = 0.26 | 0.0624 W/m/K
301.95 K, Amount density=7530 mol/m3, x2 = 0.5 | 0.0505 W/m/K
301.96 K, Amount density=6960 mol/m3, x2 = 0.5 | 0.0531 W/m/K
301.98 K, Amount density=435 mol/m3, x2 = 0.5 | 0.0203 W/m/K
302 K, Amount density=6830 mol/m3, x2 = 0.25 | 0.0658 W/m/K
302.01 K, Amount density=877 mol/m3, x2 = 0.26 | 0.0222 W/m/K
302.01 K, Amount density=2940 mol/m3, x2 = 0.5 | 0.0281 W/m/K
302.02 K, Amount density=446 mol/m3, x2 = 0.25 | 0.0214 W/m/K
302.02 K, Amount density=5680 mol/m3, x2 = 0.25 | 0.056 W/m/K
302.04 K, Amount density=2940 mol/m3, x2 = 0.25 | 0.0307 W/m/K
302.04 K, Amount density=6830 mol/m3, x2 = 0.25 | 0.0658 W/m/K
302.05 K, Amount density=8450 mol/m3, x2 = 0.25 | 0.0676 W/m/K
302.06 K, Amount density=7490 mol/m3, x2 = 0.25 | 0.0699 W/m/K
302.11 K, Amount density=3090 mol/m3, x2 = 0.26 | 0.0311 W/m/K
302.25 K, Amount density=6630 mol/m3, x2 = 0.74 | 0.0436 W/m/K
302.43 K, Amount density=5650 mol/m3, x2 = 0.5 | 0.0436 W/m/K
307.99 K, Amount density=2940 mol/m3, x2 = 0.5 | 0.0279 W/m/K
308 K, Amount density=7730 mol/m3, x2 = 0.5 | 0.0462 W/m/K
308.01 K, Amount density=6830 mol/m3, x2 = 0.25 | 0.0567 W/m/K
308.02 K, Amount density=6960 mol/m3, x2 = 0.5 | 0.0468 W/m/K
308.02 K, Amount density=7490 mol/m3, x2 = 0.25 | 0.0614 W/m/K
308.03 K, Amount density=7530 mol/m3, x2 = 0.5 | 0.0469 W/m/K
308.06 K, Amount density=5650 mol/m3, x2 = 0.5 | 0.041 W/m/K
308.06 K, Amount density=7450 mol/m3, x2 = 0.25 | 0.0646 W/m/K
308.06 K, Amount density=9120 mol/m3, x2 = 0.74 | 0.0485 W/m/K
308.07 K, Amount density=435 mol/m3, x2 = 0.5 | 0.0207 W/m/K
308.07 K, Amount density=446 mol/m3, x2 = 0.25 | 0.0219 W/m/K
308.09 K, Amount density=435 mol/m3, x2 = 0.5 | 0.0207 W/m/K
308.1 K, Amount density=877 mol/m3, x2 = 0.26 | 0.0228 W/m/K
308.12 K, Amount density=10780 mol/m3, x2 = 0.25 | 0.0659 W/m/K
308.15 K, Amount density=2940 mol/m3, x2 = 0.25 | 0.031 W/m/K
308.16 K, Amount density=3090 mol/m3, x2 = 0.26 | 0.0314 W/m/K
308.18 K, Amount density=6630 mol/m3, x2 = 0.74 | 0.0413 W/m/K
308.18 K, Amount density=6710 mol/m3, x2 = 0.26 | 0.054 W/m/K
308.23 K, Amount density=8450 mol/m3, x2 = 0.25 | 0.0617 W/m/K
308.7 K, Amount density=5680 mol/m3, x2 = 0.25 | 0.0516 W/m/K
318.04 K, Amount density=9120 mol/m3, x2 = 0.74 | 0.0354 W/m/K
318.11 K, Amount density=435 mol/m3, x2 = 0.5 | 0.0218 W/m/K
318.11 K, Amount density=6630 mol/m3, x2 = 0.74 | 0.0382 W/m/K
318.12 K, Amount density=7530 mol/m3, x2 = 0.5 | 0.0445 W/m/K
318.13 K, Amount density=5650 mol/m3, x2 = 0.5 | 0.0411 W/m/K
318.13 K, Amount density=6960 mol/m3, x2 = 0.5 | 0.0425 W/m/K
318.13 K, Amount density=7490 mol/m3, x2 = 0.25 | 0.0559 W/m/K
318.13 K, Amount density=7730 mol/m3, x2 = 0.5 | 0.0403 W/m/K
318.14 K, Amount density=2940 mol/m3, x2 = 0.5 | 0.0293 W/m/K
318.14 K, Amount density=6830 mol/m3, x2 = 0.25 | 0.0532 W/m/K
318.14 K, Amount density=10780 mol/m3, x2 = 0.25 | 0.065 W/m/K
318.15 K, Amount density=446 mol/m3, x2 = 0.25 | 0.0232 W/m/K
318.15 K, Amount density=5650 mol/m3, x2 = 0.5 | 0.0398 W/m/K
318.16 K, Amount density=2940 mol/m3, x2 = 0.25 | 0.0316 W/m/K
318.16 K, Amount density=8450 mol/m3, x2 = 0.25 | 0.049 W/m/K
318.17 K, Amount density=3090 mol/m3, x2 = 0.26 | 0.0318 W/m/K
318.19 K, Amount density=877 mol/m3, x2 = 0.26 | 0.0236 W/m/K
318.21 K, Amount density=6710 mol/m3, x2 = 0.26 | 0.0503 W/m/K
318.27 K, Amount density=5680 mol/m3, x2 = 0.25 | 0.0481 W/m/K

Reference: the NIST ThermoML archive (doi:10.1007/s10765-008-0482-1)
